Assays:
Assay in all cases: TFEB nuclear translocation in HeLa cells, imaging, EGFP fusions (AID 1224866)
[1] = target: Zinc finger protein with KRAB and SCAN domains 3 (Homo sapiens) (UniProt Q9BRR0); settings: HeLa EGFP-ZKSCAN3 cytoplasmic translocation; stronger effect = higher value; dose or concentration not given here
[2] = test system: HeLa TFEB-EGFP nuclear translocation, imaging; settings: stronger effect = higher value; dose or concentration not given here
[3] = target: Transcription factor E3 (Homo sapiens) (UniProt P19532); settings: HeLa; measured here: TFE3 nuclear translocation; stronger effect = higher value; dose or concentration not given here

| SMILES | cells with cytosolic EGFP-ZKSCAN3 [1] [%] | cells with nuclear TFEB-EGFP [2] [%] | cells with nuclear EGFP-TFE3 [3] [%] |
| --- | --- | --- | --- |
| CC=C(C)C(=O)O[C@@H]1C(C)=C[C@H]2C(=O)[C@]3(C=C(C)[C@H](OC(C)=O)[C@@]13O)[C@H](C)C[C@@H]1[C@H]2C1(C)C | 75 | 70.3 | 4.2 |
| CCCCCCCCCCCCCC(=O)OCC1=C[C@H]2C(=O)[C@]3(C=C(C)[C@H](O)[C@@]3(O)[C@@H]1O)[C@H](C)C[C@@H]1[C@H]2C1(C)C | 76.4 | 67.2 | 4.8 |
| CCCCCCCCCCCC(=O)O[C@@]12C[C@@H](C)[C@]34C=C(C)[C@H](O)[C@@]3(O)[C@H](O)C(COC(=O)C(C)C(C)C)=C[C@@H](C4=O)[C@@H]1C2(C)C (stereo not given in full) | 67.4 | 62 | 3.9 |
| CC(=O)O[C@@H]1C(C)=C[C@H]2C(=O)[C@]3(C=C(C)[C@H](OC(=O)c4ccccc4)[C@@]13O)[C@H](C)C[C@@H]1[C@H]2C1(C)C | 74.1 | 74.5 | 4.6 |
| CC1=C[C@H]2C(=O)[C@]3(C=C(C)[C@H](O)[C@@]3(O)[C@@H]1OC(=O)c1ccccc1)[C@H](C)C[C@@H]1[C@H]2C1(C)C | 79.2 | 81.3 | 4.2 |
| CCCCCCCCCCCCCCCC(=O)OCC1=C[C@H]2C(=O)[C@]3(C=C(C)[C@H](O)[C@@]3(O)[C@@H]1O)[C@H](C)C[C@@H]1[C@H]2C1(C)C | 74.3 | 66.6 | 5.1 |
| CC1=C[C@H]2C(=O)[C@]3(C=C(C)[C@H](OC(=O)c4ccccc4)[C@@]3(O)[C@@H]1O)[C@H](C)C[C@@H]1[C@H]2C1(C)C | 68.4 | 65.8 | 4 |
| CCCCCCCCCCCC(=O)O[C@@]12C[C@@H](C)[C@]34C=C(C)[C@H](OC(=O)C(C)C(C)C)[C@@]3(O)[C@H](O)C(CO)=C[C@@H](C4=O)[C@@H]1C2(C)C (stereo not given in full) | 69.7 | 66.1 | 4.3 |
| CC=C(C)C(=O)O[C@@H]1C(C)=C[C@H]2C(=O)[C@]3(C=C(C)[C@H](O)[C@@]13O)[C@H](C)C[C@@H]1[C@H]2C1(C)C | 83.6 | 85.6 | 5.2 |
| CC=C(C)C(=O)O[C@H]1C(C)=C[C@]23C(=O)[C@H](C=C(C)[C@@H](O)[C@]12O)[C@H]1[C@@H](C[C@H]3C)C1(C)C | 76.9 | 80.8 | 5.4 |

From PubChem BioAssay AID1224866 (Xiaojiang Lab, Kunming Institute of Botany, CAS, 2016)
